We go through one compound from EPA's ToxValDB 9.5 (doi:10.2903/j.efsa.2014.3744).

In series [1] the test system is Apis mellifera. To be noted: acute, duration: 48 hours, mortality.
Series [2] deals with Canidae. To be noted: chronic; duration: 1 years; oral; Dog Other; clinical chemistry.
For series [3], the system named is Colinus virginianus.
Series [4] concerns Daphnia magna. The conditions noted are these: chronic/long-term; duration: 21 days; reproduction.
The test system of series [5] is Oncorhynchus mykiss. To be noted: chronic/long-term; duration: 96 days; growth.
For series [6], the system named is Rattus norvegicus.
Series [7] has as its system Tagia sp. The conditions noted are these: acute; duration: 14 days; mortality.

A word on the NOAEL: it is the highest tested level that showed no adverse finding. For the compound `CC1(C(=O)Nc2ccc(O)c(Cl)c2Cl)CCCCC1` [Fenhexamid], the LD50 in series [1] (dermal) was greater than 200 µg/piece; in series [1] (oral, unspecified), greater than 102 µg/piece; in series [3] (acute, oral, mortality), greater than 2000 mg/kg-day; in series [6] (acute, oral, mortality) it was greater than 5000 mg/kg-day. Besides, the NOAEL was found to be 19.2 mg/kg-day in series [2] and 40.2 mg/kg-day in series [6] (reproduction developmental). In addition, the LC50 in series [3] (acute, oral, diet, mortality) is greater than 804 mg/kg-day; in series [7] it was no less than 1000 mg/kg. Moreover, the NOEC in series [3] (reproduction developmental) was 154 mg/kg-day; in series [4], 1.03 mg/L; in series [5], 0.101 mg/L.
